“And” between values parts separate entries of the source, which are not always exact repeats. Equal values may be shown once. *1 amine or outer side, *2 acyl side, *3 side chain or, on linkers, in order; H or OH if unused. Where a SMILES comes first, the peptide text is derived from it. Bridges are numbered along the chain shown (N, C = ends). Roman numbers before positions name the chains, in order. [ ]: non-standard residue; d: D form. The star is where a group is joined. ξ: configuration not given here. TATA = O=C(CC[*:1])N1CN(C(=O)CC[*:2])CN(C(=O)CC[*:3])C1; Dolaproine = CO[C@@H]([C@@H]1CCCN1)[C@@H](C)C(=O)O; X1 = CC[C@H](C)C(C(CC(=O)[*:2])OC)N(C)[*:1]; 1Nal = N[C@@H](Cc1cccc2ccccc12)C(=O)O; X3 = O=C(CCCC(=O)[*:2])NCCC(=O)[*:1]; PABC = O=C(OCc1ccc(N[*:1])cc1)[*:2]; Hyp = O=C(O)[C@@H]1C[C@@H](O)CN1; hArg = N=C(N)NCCCC[C@H](N)C(=O)O; Cit = NC(=O)NCCC[C@H](N)C(=O)O; X2 = CC(N*)[C@@H](O)c1ccccc1; ξNMeV = CNC(C(=O)O)C(C)C; ξV = CC(C)C(N)C(=O)O; Sar = CNCC(=O)O
Columns and labels:
[1] = system: Panc2.13 xenograft; assay: Example 9.7: in vivo efficacy in Panc2.13 xenograft in Balb/c nude mice; settings: for Tumor volume: iv
Procedure: (§1) The major endpoint was to see if the tumor growth could be delayed or mice could be cured. Tumor volume was measured three times weekly in two dimensions using a caliper, and the volume was expressed in mm^3 using the formula: V=0.5 a×b^2 where a and b are the long and short diameters of the tumor, respectively. The tumor size was then used for calculations of T/C value. The T/C value (in percent) is an indication of antitumor effectiveness; T and C are the mean volumes of the treated and control groups, respectively, on a given day. TGI was calculated for each group using the formula: TGI (%)=[1−(Ti−T0)/(Vi−V0)]×100; Ti is the average tumor volume of a treatment group on a given day, T0 is the average tumor volume of the treatment group on the day of treatment start, Vi is the average tumor volume of the vehicle control group on the same day with Ti, and V0 is the average tumor volume of the vehicle group on the day of treatment start.
(§2) A one-way ANOVA was performed to compare tumor volume among groups, and when a significant F-statistics (a ratio of treatment variance to the error variance) was obtained, comparisons between groups were carried out with Games-Howell test. All data were analyzed using GraphPad Prism 5.0. P<0.05 was considered to be statistically significant.
• Species: Mus Musculus • Strain: Balb/c nude • Age: 6-8 weeks • Sex: female • Body weight: 18-22 g • Number of animals: 41 mice plus spare 3.1.2.
The Panc2.13 tumor cells will be maintained in RMPI1640 medium supplemented with 15% heat inactivated fetal bovine serum and 10 units/ml human recombinant insulin at 37° C. in an atmosphere of 5% CO2 in air. The tumor cells will be routinely subcultured twice weekly. The cells growing in an exponential growth phase will be harvested and counted for tumor inoculation.
Each mouse was inoculated subcutaneously at the right flank with Panc2.13 tumor cells (5×10^6 with Matrigel (1:1) in 0.2 ml of PBS for tumor development. 41 animals were randomized when the average tumor volume reached 149 mm^3. The test article administration and the animal numbers in each group were shown in the experimental design table.
Tumor growth inhibition rate for Test articles in the Panc2.13 xenograft model was calculated based on tumor volume measurements at day 14 after the start of treatment.

[2] = system: NCI-H292 xenograft; assay: Example 1: in vivo efficacy in NCI-H292 xenograft (NSCLC model) in BALB/c nude mice; set-up: species or system Mus Musculus
Procedure: as §1, §2
The NCI-H292 tumor cells will be maintained in medium supplemented with 10% heat inactivated fetal bovine serum at 37° C. in an atmosphere of 5% CO2 in air. The tumor cells will be routinely subcultured twice weekly. The cells growing in an exponential growth phase will be harvested and counted for tumor inoculation.
Each mouse will be inoculated subcutaneously at the right flank with NCI-H292 tumor cells (10×10^6) in 0.2 ml of PBS for tumor development. The animals will be randomized and treatment will be started when the average tumor volume reaches approximately 158-406 mm^3.

[3] = 3 mpk biw iv, day 14 (Table 13)

CC[C@H](C)C(C(CC(=O)N1CCC[C@H]1[C@H](OC)[C@@H](C)C(=O)NC(C)[C@@H](O)c1ccccc1)OC)N(C)C(=O)[C@@H](NC(=O)C(C(C)C)N(C)C(=O)OCc1ccc(NC(=O)[C@H](CCCNC(N)=O)NC(=O)C(NC(=O)CCCC(=O)NCCC(=O)N(C)CC(=O)N(C)CC(=O)N(C)CC(=O)N(C)CC(=O)N(C)CC(=O)N(C)CC(=O)N(C)CC(=O)N(C)CC(=O)N(C)CC(=O)N(C)CC(=O)N[C@H]2CSCCC(=O)N3CN4CN(C3)C(=O)CCSC[C@H](NC(=O)[C@@H](CC(=O)O)NC(=O)[C@H](Cc3cccc5ccccc35)NC(=O)[C@@H]3CCCN3C2=O)C(=O)N[C@@H](CCSC)C(=O)N[C@@H](CCCCNC(=N)N)C(=O)N[C@@H](CC(=O)O)C(=O)N[C@@H](Cc2c[nH]c3ccccc23)C(=O)N[C@@H](CO)C(=O)N[C@@H]([C@@H](C)O)C(=O)N2CCC[C@H]2C(=O)N2C[C@H](O)C[C@H]2C(=O)N[C@@H](Cc2c[nH]c3ccccc23)C(=O)N[C@H](C(N)=O)CSCCC4=O)C(C)C)cc1)C(C)C (stereo partly drawn) [BCY8245, MMAE-PABC-Cit-Val-Glutaryl-BCY8234] (I: [Sar][Sar][Sar][Sar][Sar][Sar][Sar][Sar][Sar][Sar]CP[1Nal][dD]CM[hArg]DWSTP[Hyp]WC-NH2 / II: [ξV][Cit][PABC][ξNMeV]V[X1][Dolaproine]-X2; linker I:11-I:15-I:25 via TATA; linker I:N-II:N via X3)
Tumor volume ([1]; 3 mpk, biw, day 11): 241 mm^3
Tumor volume ([1]; 3 mpk, biw, day 14): 231 mm^3
T/C ([1]; 3 mpk, biw, day 14): 42.3%
TGI ([1]; 3 mpk, biw, day 14): 79.1%
Tumor Volume (Mean ± SEM) ([1]; 3 mpk, biw, day 14): 231 ± 57 mm^3
Tumor volume ([1]; 3 mpk, qw, day 0 after the start of treatment): 149 mm^3
Tumor volume ([1]; 3 mpk, qw, day 2): 160 mm^3
Tumor volume ([1]; 3 mpk, qw, day 4): 191 mm^3
Tumor volume ([1]; 3 mpk, qw, day 7): 215 mm^3
Tumor volume ([1]; 3 mpk, qw, day 9): 242 mm^3
Tumor volume ([1]; 3 mpk, qw, day 11): 259 mm^3
Tumor volume ([1]; 3 mpk, qw, day 14): 271 mm^3
T/C ([1]; 3 mpk, qw, day 14): 49.6%
TGI ([1]; 3 mpk, qw, day 14): 69.2%
Tumor Volume (Mean ± SEM) ([1]; 3 mpk, qw, day 14): 271 ± 54 mm^3
Tumor volume ([1]; 5 mpk, qw, day 0 after the start of treatment): 149 mm^3
Tumor volume ([1]; 5 mpk, qw, day 2): 180 mm^3
Tumor volume ([1]; 5 mpk, qw, day 4): 231 mm^3
Tumor volume ([1]; 5 mpk, qw, day 7): 242 mm^3
Tumor volume ([1]; 5 mpk, qw, day 9): 248 mm^3
Tumor volume ([1]; 5 mpk, qw, day 11): 231 mm^3
Tumor volume ([1]; 5 mpk, qw, day 14): 238 mm^3
T/C ([1]; 5 mpk, qw, day 14): 43.6%
TGI ([1]; 5 mpk, qw, day 14): 77.5%
Tumor Volume (Mean ± SEM) ([1]; 5 mpk, qw, day 14): 238 ± 40 mm^3
tumor response (in words) ([1]; mouse, in vivo): tumor growth is restrained by BCY8245 but the tumor does not undergo regression
antitumor activity (in words) ([2]; 1 mg/kg qw): didn't produce significant antitumor activity
Tumor volume ([2]; 1/3/5 mpk qw iv, day 0): 404 ± 65 mm^3
Tumor volume ([2]; 1/3/5 mpk qw iv, day 2): 391 ± 42 mm^3
Tumor volume ([2]; 1/3/5 mpk qw iv, day 4): 542 ± 14 mm^3
Tumor volume ([2]; 1/3/5 mpk qw iv, day 7): 721 ± 136 mm^3
Tumor volume ([2]; 1/3/5 mpk qw iv, day 9): 762 ± 115 mm^3
Tumor volume ([2]; 1/3/5 mpk qw iv, day 11): 607 ± 95 mm^3
Tumor volume ([2]; 1/3/5 mpk qw iv, day 14): 614 ± 89 mm^3
Tumor volume ([2]; 1/3/5 mpk qw iv, day 16): 626 ± 93 mm^3
Tumor volume ([2]; 1/3/5 mpk qw iv, day 18): 611 ± 93 mm^3
T/C ([2]; 1/3/5 mpk qw iv, day 21): 30.4%
TGI ([2]; 1/3/5 mpk qw iv, day 21): 85.7%
Tumor volume ([2]; 1/3/5 mpk qw iv, day 21): 654 ± 152 mm^3
Tumor volume ([2]; 1/3/5 mpk qw iv, day 23): 732 ± 139 mm^3
Tumor volume ([2]; 1/3/5 mpk qw iv, day 25): 755 ± 132 mm^3
Tumor volume ([2]; 1/3/5 mpk qw iv, day 28): 713 ± 114 mm^3
Tumor volume ([2]; 1/3/5 mpk qw iv, day 30): 762 ± 165 mm^3
Tumor volume ([2]; 1/3/5 mpk qw iv, day 32): 968 ± 290 mm^3
Tumor volume ([2]; 1/3/5 mpk qw iv, day 35): 1119 ± 216 mm^3
Tumor volume ([2]; 3 mpk biw iv, day 0 (Table 9)): 162 ± 13 mm^3
Tumor volume ([2]; 3 mpk biw iv, day 2 (Table 9)): 243 ± 19 mm^3
Tumor volume ([2]; 3 mpk biw iv, day 4 (Table 9)): 211 ± 12 mm^3
Tumor volume ([2]; 3 mpk biw iv, day 7 (Table 9)): 101 ± 11 mm^3
Tumor volume ([2]; 3 mpk biw iv, day 9 (Table 9)): 100 ± 8 mm^3
Tumor volume ([2]; 3 mpk biw iv, day 11 (Table 9)): 87 ± 7 mm^3
Tumor volume ([2]; 3 mpk biw iv, day 14 (Table 9)): 65 mm^3 and 65 ± 3 mm^3
T/C [2, 3]: 6.9%
TGI [2, 3]: 112.2%
Tumor volume ([2]; 3 mpk qw iv, day 0 (Table 9)): 160 ± 5 mm^3
Tumor volume ([2]; 3 mpk qw iv, day 2 (Table 9)): 220 ± 11 mm^3
Tumor volume ([2]; 3 mpk qw iv, day 4 (Table 9)): 266 ± 15 mm^3
Tumor volume ([2]; 3 mpk qw iv, day 7 (Table 9)): 218 ± 23 mm^3
Tumor volume ([2]; 3 mpk qw iv, day 9 (Table 9)): 167 ± 10 mm^3
Tumor volume ([2]; 3 mpk qw iv, day 11 (Table 9)): 161 ± 36 mm^3
Tumor volume ([2]; 3 mpk qw iv, day 14 (Table 9)): 149 mm^3 and 149 ± 43 mm^3
T/C ([2]; 3 mpk qw iv, day 14 (Table 13)): 15.8%
TGI ([2]; 3 mpk qw iv, day 14 (Table 13)): 101.4%
Tumor volume ([2]; 5 mpk qw iv, day 0 (Table 9)): 160 ± 9 mm^3
Tumor volume ([2]; 5 mpk qw iv, day 2 (Table 9)): 176 ± 7 mm^3
Tumor volume ([2]; 5 mpk qw iv, day 4 (Table 9)): 191 ± 3 mm^3
Tumor volume ([2]; 5 mpk qw iv, day 7 (Table 9)): 105 ± 8 mm^3
Tumor volume ([2]; 5 mpk qw iv, day 9 (Table 9)): 82 ± 3 mm^3
Tumor volume ([2]; 5 mpk qw iv, day 11 (Table 9)): 91 ± 14 mm^3
Tumor volume ([2]; 5 mpk qw iv, day 14 (Table 9)): 83 mm^3 and 83 ± 8 mm^3
T/C ([2]; 5 mpk qw iv, day 14 (Table 13)): 8.8%
TGI ([2]; 5 mpk qw iv, day 14 (Table 13)): 109.8%
antitumor activity (in words) ([2]; after increasing the dosage to 3 mg/kg from day 7): obvious antitumor activity
efficacy (in words) ([2]; after increasing the dosage to 5 mg/kg on day 21): not further improved
anti-tumour activity (in words) ([2]; mouse, in vivo): good anti-tumour activity

Reference: patent US12459974B2, “Bicyclic peptide ligands specific for Nectin-4” (priority 2018, dated 2025)
